Experimental data: patent US7285564B2, “Substituted 4-amino-1-(pyridylmethyl)piperidine and related compounds” (Theravance, Inc., priority 2002, dated 2007)

Target: T1, hM2 receptor (Homo sapiens, UniProt P08172)
T1 construct: expressed in transfected cells; membranes prepared
T1 sequence (P08172 1-466): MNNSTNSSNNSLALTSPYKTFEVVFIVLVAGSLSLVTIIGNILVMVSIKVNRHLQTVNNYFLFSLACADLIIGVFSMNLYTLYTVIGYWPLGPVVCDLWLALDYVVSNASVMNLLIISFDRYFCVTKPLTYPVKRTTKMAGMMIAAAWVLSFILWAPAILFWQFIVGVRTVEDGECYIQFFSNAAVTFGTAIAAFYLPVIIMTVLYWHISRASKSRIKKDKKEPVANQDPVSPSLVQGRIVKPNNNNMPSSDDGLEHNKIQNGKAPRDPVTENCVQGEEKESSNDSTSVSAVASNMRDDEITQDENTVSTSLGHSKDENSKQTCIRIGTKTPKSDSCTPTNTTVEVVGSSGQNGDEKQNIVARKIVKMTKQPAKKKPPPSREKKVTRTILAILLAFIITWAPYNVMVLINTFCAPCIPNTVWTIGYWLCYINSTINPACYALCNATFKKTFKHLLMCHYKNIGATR
Assay: Blockade of agonist-mediated inhibition of cAMP accumulation
Format: cell-based
Conditions: CHO-K1 cells expressing the hM2 receptor; read-out: Ki for blockade of oxotremorine-inhibition of forskolin-mediated cAMP accumulation
Procedure: In this assay, the functional potency of a test compound was determined by measuring the ability of the test compound to block oxotremorine-inhibition of forskolin-mediated cAMP accumulation in CHO-K 1 cells expressing the hM2 receptor.
cAMP assays were performed in a radioimmunoassay format using the Flashplate Adenylyl Cyclase Activation Assay System with ^125]-cAMP (NEN SMP004B, PerkinElmer Life Sciences Inc., Boston, Mass.), according to the manufacturer's instructions.
CHO-K1 cells stably expressing cloned human M2 muscarinic receptors were grown to near confluency in a 5% CO2, 37° C. incubator in medium consisting of HAM's F-12 supplemented with 10% FBS (Fetal Bovine Serum) and 250 μg/mL Geneticin. […] The cell pellet was then re-suspended in 10 mL dPBS, and the cells were counted with a Coulter Z1 Dual Particle Counter (Beckman Coulter, Fullerton, Calif.). […]
Reactions were incubated for 10 minutes at 37° C. and stopped by addition of 100 μL ice-cold detection buffer. Plates were sealed, incubated overnight at room temperature and counted the next morning on a PerkinElmer TopCount liquid scintillation counter (PerkinElmer Inc., Wellesley, Mass.). The amount of cAMP produced (pmol/well) was calculated based on the counts observed for the samples and cAMP standards, as described in the manufacturer's user manual. […]

Ki: < 1 nM
Structure (SMILES): COc1ccncc1CN1CCC(N(CCCCCCCN2CC[C@@H](C(C(N)=O)(c3ccccc3)c3ccccc3)C2)C(C)C)CC1 [Example 1]
